Laboratory results: article PMC5107132 (European journal of pharmacology, 2016)
Marks after values point to notes of the source that are not given here.

Columns and labels:
α3β3γ2S GABAA receptors = α3β3γ2S GABAA receptors (Rattus norvegicus, UniProt P18508+P20236); test: 3H-flunitrazepam competition binding, α3β3γ2S
[1] = system: 50 other receptor and enzyme assays; test: NIMH PDSP screen, 50 other receptor and enzyme assays
Wistar rats [2] = test: Grip strength; type: in vivo, rat; details: for Grip strength, peak force of experimenter's pull necessary to overcome the animal's grip: 20 min before testing
Wistar rats [3] = test: Intravenous pentylenetetrazole infusion test; type: in vivo, rat
non-α5GABAARs = test: Two-electrode voltage clamp in Xenopus oocytes, non-α5 receptors; type: cell-based, rat; details: 100 nM effective concentration
[4] = Plasma protein and brain tissue binding; type: in vitro ADME, rat; details: rat
α5β3γ2 GABAA receptors = α5β3γ2 GABAA receptors (Rattus norvegicus, UniProt P18508+P19969); test: Two-electrode voltage clamp in Xenopus oocytes, α5β3γ2; type: cell-based; details: concentrations approaching 100 nM; GABA EC3-5
α1β3γ2 GABAA receptors = α1β3γ2 GABAA receptors (Rattus norvegicus, UniProt P18508+P62813); test: Two-electrode voltage clamp in Xenopus oocytes, α1β3γ2; type: cell-based; details: whole range of in vivo free brain concentrations obtained
α2β3γ2 GABAA receptors = α2β3γ2 GABAA receptors (Rattus norvegicus, UniProt P18508+P23576); test: Two-electrode voltage clamp in Xenopus oocytes, α2β3γ2; type: cell-based
Wistar rats [5] = test: Elevated plus maze; type: in vivo, rat; details: 1 mg/kg to 10 mg/kg i.p., 5 min
α3β3γ2 GABAA receptors = α3β3γ2 GABAA receptors (Rattus norvegicus, UniProt P18508+P20236); test: Two-electrode voltage clamp in Xenopus oocytes, α3β3γ2; type: cell-based
α2β3γ2S GABAA receptors = α2β3γ2S GABAA receptors (Rattus norvegicus, UniProt P18508+P23576); test: 3H-flunitrazepam competition binding, α2β3γ2S
α5β3γ2S GABAA receptors = α5β3γ2S GABAA receptors (Rattus norvegicus, UniProt P18508+P19969); test: 3H-flunitrazepam competition binding, α5β3γ2S
[6] = In vitro hydrolytic stability study in rat plasma; type: in vitro ADME; details: for Total plasma concentration (in vitro metabolic stability): rat plasma 37 °C
Wistar rats [7] = test: Amphetamine induced locomotor activity; type: in vivo, rat; details: 1, 2.5 and 10 mg/kg i.p.
α1β3γ2S GABAA receptors = α1β3γ2S GABAA receptors (Rattus norvegicus, UniProt P18508+P62813); test: 3H-flunitrazepam competition binding, α1β3γ2S
Wistar rats [8] = test: Rotarod test; type: in vivo, rat
[9] = Pharmacokinetic study, plasma and brain concentrations after i.p. injection
[10] = only at concentrations of about 100 nM and above
[11] = rat i.p., MP-III-022 2.5 mg/kg vs SH-053-2′F-R-CH3 10 mg/kg

With `C#Cc1ccc2c(c1)C(c1ccccc1F)=N[C@H](C)c1c(C(=O)NC)ncn1-2` [MP-III-022, (R)-8-Ethynyl-6-(2-fluorophenyl)-N,4-dimethyl-4H-benzo[f]imidazo[1,5-a][1,4]diazepine-3-carboxamide] the Ki (α3β3γ2S GABAA receptors) was 660 ± 170 nM, the “Activity in 50 other receptor and enzyme assays” value [1] was “negligible activity” and the “Grip strength, peak force of experimenter's pull necessary to overcome the animal's grip” value (“Grip strength, peak force” for short) (Wistar rats [2]; 1 mg/kg i.p.) was 2.57 ± 0.08 kg/kg. The “Grip strength, peak force” value (Wistar rats [2]; 2.5 mg/kg i.p.) was 2.41 ± 0.28 kg/kg, the “Grip strength, peak force” value (Wistar rats [2]; 10 mg/kg i.p.) was 1.94 ± 0.22^b,d kg/kg and the “Grip strength, peak force” value (Wistar rats [2]; 15 mg/kg i.p.) was 1.86 ± 0.16^a kg/kg. The “Grip strength, peak force” value (Wistar rats [2]; 20 mg/kg i.p.) was 1.78 ± 0.16^c,d kg/kg, the “Dose at which the first muscle relaxant effect was observed” value (Wistar rats [2]; i.p., grip strength) was 10 mg/kg and the “PTZ test, threshold dose of PTZ required to elicit seizures” value (Wistar rats [3]; 1 mg/kg i.p.) was 60.99 ± 6.11 mg/kg PTZ. For the same compound, the “PTZ test, threshold dose of PTZ required to elicit seizures” value (Wistar rats [3]; 10 mg/kg i.p.) was 50.99 ± 3.72 mg/kg PTZ, the “PTZ test, effect of treatment (one-way ANOVA)” value (Wistar rats [3]; 1 and 10 mg/kg i.p.) was “did not show a statistically significant effect” and the “Effects (potentiation) on non-α5GABAARs” value (non-α5GABAARs) was no more than 150%. For the same compound, the fraction unbound ([4]; brain tissue) was 0.0661, the fraction unbound ([4]; plasma) was 0.135 and the “Potentiation at α5β3γ2” value (α5β3γ2 GABAA receptors) was “above 300%”. For the same compound, the “Modulatory actions at α1-containing GABAA receptors” value (α1β3γ2 GABAA receptors) was “lacked modulatory actions”, the “Estimated potentiation at α2GABAARs” value (α2β3γ2 GABAA receptors; after the 15 mg/kg dose) was 225% and the “Estimated potentiation at α2GABAARs” value (α2β3γ2 GABAA receptors; after the 20 mg/kg dose) was 280%. The “Estimated potentiation at α2GABAARs” value (α2β3γ2 GABAA receptors; after the dose of 10 mg/kg) was 138%, the “Modulatory activity at α2-containing receptors” value (α2β3γ2 GABAA receptors; [10]) was “weakly modulatory” and the “Elevated plus maze, closed and total arm entries” value (Wistar rats [5]) was “did not affect”. For the same compound, the “Elevated plus maze, percent of open arm entries” value (Wistar rats [5]) was “did not affect”, the “Elevated plus maze, percent of open arm time” value (Wistar rats [5]) was “did not affect” and the “Elevated plus maze, total distance traveled” value (Wistar rats [5]) was “did not affect”. The “Estimated potentiation at α3GABAARs” value (α3β3γ2 GABAA receptors; after the 15 mg/kg dose) was 175%, the “Estimated potentiation at α3GABAARs” value (α3β3γ2 GABAA receptors; after the 20 mg/kg dose) was 200% and the “Modulatory activity at α3-containing receptors” value (α3β3γ2 GABAA receptors; [10]) was “weakly modulatory”. The Ki (α2β3γ2S GABAA receptors) was 360 ± 56 nM, the “Estimated free concentration as % of Ki value for α2GABAARs” value (α2β3γ2S GABAA receptors; after the dose of 10 mg/kg) was 19% and the Ki (α5β3γ2S GABAA receptors) was 55 ± 17 nM. The “Selectivity in binding to α5GABAARs compared to α1-containing GABAA receptors” value (α5β3γ2S GABAA receptors; ratio of Ki values) was 15 fold, the “Selectivity in binding to α5GABAARs compared to α2-containing GABAA receptors” value (α5β3γ2S GABAA receptors; ratio of Ki values) was 6 fold and the “Selectivity in binding to α5GABAARs compared to α3-containing GABAA receptors” value (α5β3γ2S GABAA receptors; ratio of Ki values) was 12 fold. The “Total plasma concentration (in vitro metabolic stability)” value (“Total plasma concentration” below) ([6]; 0 min) was 0.5556 µM, the “Total plasma concentration” value ([6]; 30 min) was 0.5402 ± 0.0146 µM and the “Total plasma concentration” value ([6]; 60 min) was 0.5403 ± 0.0193 µM. For the same compound, the “Total plasma concentration” value ([6]; 120 min) was 0.5472 ± 0.0007 µM, the “Total plasma concentration” value ([6]; 240 min) was 0.5374 ± 0.0063 µM and the “In vitro metabolic stability during incubation in rat plasma” value ([6]; rat, plasma) was “excellent in vitro metabolic stability”. The remaining at 0 h, 0.2 μg/ml ([6]; rat, plasma) was 100%, the remaining at 0.5 h, 0.2 μg/ml ([6]; rat, plasma) was 97.2% and the remaining at 1 h, 0.2 μg/ml ([6]; rat, plasma) was 97.2%. The remaining at 2 h, 0.2 μg/ml ([6]; rat, plasma) was 98.5%, the remaining at 4 h, 0.2 μg/ml ([6]; rat, plasma) was 96.7% and the “Locomotor activity during 20 min before amphetamine treatment” value (Wistar rats [7]) was “did not show any effect of treatment”. The “Influence on amphetamine's effects (hyperlocomotion, 0.5 mg/kg amphetamine)” value (Wistar rats [7]; 60 min) was “lack of influence”, the Ki (α1β3γ2S GABAA receptors) was 850 ± 110 nM and the “Rotarod, time remaining on the rod revolving at 15 rpm” value (“Rotarod, time remaining” below) (Wistar rats [8]; 10 mg/kg i.p.) was 180 s. For the same compound, the “Rotarod, time remaining” value (Wistar rats [8]; 15 mg/kg MP-III-022 in combination with 20 mg/kg XLi-093, i.p.) was 74.61 ± 34.03 s, the “Rotarod, time remaining” value (Wistar rats [8]; 15 mg/kg i.p.) was 69.09 ± 25.58 s and the “Rotarod, time remaining” value (Wistar rats [8]; 20 mg/kg i.p.) was 6.67 ± 4.81 s. For the same compound, the “Brain AUC (0 to 180 min) relative to SH-053-2′F-R-CH3” value [9, 11] was 1.75 fold, the “Plasma AUC (0 to 180 min) relative to SH-053-2′F-R-CH3” value [9, 11] was 2 fold and the “Brain free (estimated) concentration” value ([9]; rat, 1 mg/kg i.p., 20 min) was 6.38 ± 0.80 nmol/kg. The “Brain free (estimated) concentration” value ([9]; rat, 2.5 mg/kg i.p., 20 min) was 10.34 ± 3.33 nmol/kg, the Brain total concentration ([9]; rat, 2.5 mg/kg i.p., 20 min) was 156.46 ± 50.33 nmol/kg and the “Brain free (estimated) concentration” value ([9]; rat, 10 mg/kg i.p., 20 min) was 68.12 ± 18.38 nmol/kg. The Brain total concentration ([9]; rat, 10 mg/kg i.p., 20 min) was 1030.52 ± 278.03 nmol/kg, the “Brain free (estimated) concentration” value ([9]; rat, 15 mg/kg i.p., 20 min) was 317.57 ± 186.52 nmol/kg and the Brain total concentration ([9]; rat, 15 mg/kg i.p., 20 min) was 4804.44 ± 2821.77 nmol/kg. The “Brain free (estimated) concentration” value ([9]; rat, 20 mg/kg i.p., 20 min) was 559.57 ± 58.58 nmol/kg, the Brain total concentration ([9]; rat, 20 mg/kg i.p., 20 min) was 8465.45 ± 886.18 nmol/kg and the concentration at 20 min ([9]; rat, plasma, ip, 1 mg/kg, Plasma total concentration, 1 mg/kg i.p., 20 min) was 62.4 ± 4.97 nM.
